Laboratory results as given in patent publication US20260199339A1, “COMBINATION THERAPY FOR TREATING ABNORMAL CELL GROWTH” (Verastem, Inc., priority 2020, published 2026).
“Also recorded” adds a separate entry of the source.

Tests used:
SKMEL5 = test: Cell viability after VS-6766 treatment, SKMEL5; type: cell-based, human; conditions: SKMEL5, 48 hours
IGR-1 = test: Cell viability after VS-6766 treatment, IGR-1; type: cell-based, human; conditions: IGR-1, 48 hours
[1] = test system: KRAS/BRAF mutant human cancer cell lines; test: RNA extraction and qRT-PCR of MHC-I antigen presentation genes; type: cell-based; conditions: FIG. 1
Procedure: RNA Extraction and qRT-PCR
Cells were seeded into 6-cm dishes and after an incubate overnight (17~22 hrs) cells were treated with VS-6766 for 48 hours at a concentration that gave an 80% cell viability (1 μM for A549, TOV21G and WM115, and 300 nM for SKMEL5 and IGR-1). RNA was extracted using RNeasy® Plus Mini kit (Qiagen) and converted to cDNA using the cDNA by High-Capacity cDNA Reverse Transcription Kit (Applied Biosystems). TaqMan qPCR was run using HLA-A, B2M, TAP1 and TAP-2 probes from Applied Biosystems. VIC-GAPDH probe as the house keeping gene. Each PCR reaction will be run in triplicate wells. Expression levels were computed as the difference (ΔCT) between the target gene CT and GAPDH CT.

TOV21G = test: Cell viability after VS-6766 treatment, TOV21G; type: cell-based, human; conditions: 48 hours
WM115 = test: Cell viability after VS-6766 treatment, WM115; type: cell-based, human; conditions: WM115, 48 hours
[2] = test system: CT26 KRAS (G12D)-mutant colorectal cancer mouse models; test: Syngeneic CT26 tumor mouse study, VS-6766 and/or anti-PD-1; type: in vivo; conditions: VS-6766 0.5 mg/kg PO QD x 28 days; anti-PD-1 60 μg/mouse (3 mg/kg) IP BIW x 4 doses; Balb/c mice; FIG. 2A, 2B
Procedure: CT26 tumor cells were obtained from ATCC and Balb/c mice were obtained from Shanghai Lingchang Biotechnology. Tumor challenge was initiated by subcutaneous inoculation of 3×10^5 CT26 tumor cell suspensions into the right flank of recipient mice. Tumor sizes (mm3) were measured and calculated as described above. Once tumors reached an average volume of 50-80 mm3, mice were sorted into 4 groups (n=10): vehicle (5% DMSO, 10% HPCD in sterile water, oral dosing (PO), once per day (QD), 28 days)+isotype control ([…] intraperitoneally (IP) biweekly, 4 doses; rat IgG2a clone 2A3, BioXcell), VS-6766 (0.5 mg/kg PO QD, 28 days)+isotype control, anti-PD-1 (60 μg/mouse IP biweekly, 4 doses; clone RMP1-14, BioXCell), and VS-6766+anti-PD-1. Tumors and body weights were measured 3 times per week for the duration of the study. At the time of routine monitoring, the animals were checked for any effects of tumor growth and treatments on normal behavior such as mobility, food and water consumption (by looking only), and body weight gain/loss, eye/hair matting and any other abnormal effect. For Kaplan-Meier analysis, an event was defined by death or tumor growth beyond 2,000 mm^3.

A549 = test: Cell viability after VS-6766 treatment, A549; type: cell-based, human; conditions: A549, 48 hours

CNS(=O)(=O)Nc1nccc(Cc2c(C)c3ccc(Oc4ncccn4)cc3oc2=O)c1F [VS-6766]
concentration that gave an 80% cell viability (SKMEL5): 300 nM | concentration that gave an 80% cell viability (IGR-1): 300 nM | HLA-A expression ([1]; 48 h, qRT-PCR): increased | TAP1 expression ([1]; 48 h, qRT-PCR): increased | TAP2 expression ([1]; 48 h, qRT-PCR): increased | β2M expression ([1]; 48 h, qRT-PCR): increased | tumor antigen presentation (markers associated with antigen presentation, MHC-I expression) ([1]; multiple KRAS/BRAF mutant human cancer cell lines): increase tumor antigen presentation; also recorded: upregulates | concentration that gave an 80% cell viability (TOV21G): 1 µM | concentration that gave an 80% cell viability (WM115): 1 µM | tumor growth / antitumor efficacy (tumor volume) [2]: delay tumor growth | concentration that gave an 80% cell viability (A549): 1 µM
